This passage reports residual activity results from the kinase profiling compilation of Christmann-Franck et al. (2016).

Values joined by “and” are separate entries in the source; they are usually repeats but may differ in a detail not shown here. Identical values can stand only once.

Chain of MAP4K2 (human) (Q12851 whole entry, looked up): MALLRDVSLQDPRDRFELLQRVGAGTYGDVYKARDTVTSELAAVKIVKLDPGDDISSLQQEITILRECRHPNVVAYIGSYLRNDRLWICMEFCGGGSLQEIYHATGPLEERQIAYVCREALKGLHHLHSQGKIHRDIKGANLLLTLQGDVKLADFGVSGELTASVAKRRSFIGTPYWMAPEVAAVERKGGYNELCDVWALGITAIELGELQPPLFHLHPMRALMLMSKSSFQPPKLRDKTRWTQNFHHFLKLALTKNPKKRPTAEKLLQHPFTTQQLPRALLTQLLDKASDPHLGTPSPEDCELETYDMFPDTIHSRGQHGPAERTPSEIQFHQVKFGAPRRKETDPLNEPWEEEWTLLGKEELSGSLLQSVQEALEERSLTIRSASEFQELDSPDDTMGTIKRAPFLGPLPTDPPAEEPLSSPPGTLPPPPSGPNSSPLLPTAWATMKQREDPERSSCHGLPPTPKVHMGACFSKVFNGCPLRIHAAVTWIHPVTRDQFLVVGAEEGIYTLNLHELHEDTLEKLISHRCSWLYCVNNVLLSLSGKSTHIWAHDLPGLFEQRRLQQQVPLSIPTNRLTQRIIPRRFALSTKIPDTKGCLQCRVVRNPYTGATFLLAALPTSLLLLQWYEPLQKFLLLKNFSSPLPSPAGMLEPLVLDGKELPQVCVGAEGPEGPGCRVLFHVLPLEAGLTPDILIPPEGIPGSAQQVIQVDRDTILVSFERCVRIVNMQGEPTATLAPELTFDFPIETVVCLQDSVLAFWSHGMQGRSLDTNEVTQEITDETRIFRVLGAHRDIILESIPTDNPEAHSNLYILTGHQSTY

One assay deals with MAPK9 (human) (UniProt P45984). The assay is described as follows: radiometric filter-binding kinase assay, Kinase HotSpot. To be noted: compound 0.5 µM; ATP 10 µM.
Chain of MAPK9 (human) (P45984 whole entry, looked up): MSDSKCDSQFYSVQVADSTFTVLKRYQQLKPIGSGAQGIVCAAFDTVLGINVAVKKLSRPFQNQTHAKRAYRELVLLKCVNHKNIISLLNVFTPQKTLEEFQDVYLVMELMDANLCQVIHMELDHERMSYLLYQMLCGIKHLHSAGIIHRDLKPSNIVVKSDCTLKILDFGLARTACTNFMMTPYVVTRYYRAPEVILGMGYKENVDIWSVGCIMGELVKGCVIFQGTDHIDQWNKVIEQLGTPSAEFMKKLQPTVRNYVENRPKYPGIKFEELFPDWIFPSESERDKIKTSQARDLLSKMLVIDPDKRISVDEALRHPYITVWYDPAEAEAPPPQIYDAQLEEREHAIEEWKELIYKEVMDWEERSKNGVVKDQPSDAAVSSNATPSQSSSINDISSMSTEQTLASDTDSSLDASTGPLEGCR
For the molecule `COc1cc2ncnc(N3CCN(C(=O)Nc4ccc(Oc5ccccc5)cc4)CC3)c2cc1OC`, the residual activity stood at 88.4%.
The same measure, in the same setting: the figure for `Oc1ccc(Nc2nc(-c3ccc(Cl)cc3)cs2)cc1` is 98.3%; for `O=C1Nc2ccccc2/C1=C1/Nc2ccccc2/C1=N\OCCC(O)CO` (stereo not drawn) it is 44.3%.

In a further assay the target is LYN (human) (UniProt P07948). The assay is described as above. Conditions: compound 0.5 µM; ATP 10 µM.
Chain of LYN (human) (P07948 whole entry, looked up): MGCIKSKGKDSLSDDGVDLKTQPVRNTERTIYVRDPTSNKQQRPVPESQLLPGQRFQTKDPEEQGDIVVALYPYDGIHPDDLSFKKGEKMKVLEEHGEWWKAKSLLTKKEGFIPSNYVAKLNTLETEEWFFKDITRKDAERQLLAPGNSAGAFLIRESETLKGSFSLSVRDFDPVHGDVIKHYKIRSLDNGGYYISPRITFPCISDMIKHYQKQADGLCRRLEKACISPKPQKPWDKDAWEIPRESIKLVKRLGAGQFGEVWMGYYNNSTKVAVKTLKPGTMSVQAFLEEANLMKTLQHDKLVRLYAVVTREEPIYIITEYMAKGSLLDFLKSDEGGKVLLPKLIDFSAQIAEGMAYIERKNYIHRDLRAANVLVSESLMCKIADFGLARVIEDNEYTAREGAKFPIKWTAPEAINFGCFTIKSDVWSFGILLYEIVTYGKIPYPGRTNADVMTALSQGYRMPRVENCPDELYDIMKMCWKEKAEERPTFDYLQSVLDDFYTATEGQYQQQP
In the case of `COc1cc2ncnc(N3CCN(C(=O)Nc4ccc(Oc5ccccc5)cc4)CC3)c2cc1OC`, the residual activity is 102% and 97.8%.
The same measure, in the same setting: with `Oc1ccc(Nc2nc(-c3ccc(Cl)cc3)cs2)cc1` the figure was 100%; with `O=C1Nc2ccccc2/C1=C1/Nc2ccccc2/C1=N\OCCC(O)CO` (stereo not drawn), 25.4% and 45.5%.

The next assay deals with TYRO3 (human) (UniProt Q06418). The description is as above. Conditions: compound 0.5 µM; ATP 10 µM.
Chain of TYRO3 (human) (Q06418 whole entry, looked up): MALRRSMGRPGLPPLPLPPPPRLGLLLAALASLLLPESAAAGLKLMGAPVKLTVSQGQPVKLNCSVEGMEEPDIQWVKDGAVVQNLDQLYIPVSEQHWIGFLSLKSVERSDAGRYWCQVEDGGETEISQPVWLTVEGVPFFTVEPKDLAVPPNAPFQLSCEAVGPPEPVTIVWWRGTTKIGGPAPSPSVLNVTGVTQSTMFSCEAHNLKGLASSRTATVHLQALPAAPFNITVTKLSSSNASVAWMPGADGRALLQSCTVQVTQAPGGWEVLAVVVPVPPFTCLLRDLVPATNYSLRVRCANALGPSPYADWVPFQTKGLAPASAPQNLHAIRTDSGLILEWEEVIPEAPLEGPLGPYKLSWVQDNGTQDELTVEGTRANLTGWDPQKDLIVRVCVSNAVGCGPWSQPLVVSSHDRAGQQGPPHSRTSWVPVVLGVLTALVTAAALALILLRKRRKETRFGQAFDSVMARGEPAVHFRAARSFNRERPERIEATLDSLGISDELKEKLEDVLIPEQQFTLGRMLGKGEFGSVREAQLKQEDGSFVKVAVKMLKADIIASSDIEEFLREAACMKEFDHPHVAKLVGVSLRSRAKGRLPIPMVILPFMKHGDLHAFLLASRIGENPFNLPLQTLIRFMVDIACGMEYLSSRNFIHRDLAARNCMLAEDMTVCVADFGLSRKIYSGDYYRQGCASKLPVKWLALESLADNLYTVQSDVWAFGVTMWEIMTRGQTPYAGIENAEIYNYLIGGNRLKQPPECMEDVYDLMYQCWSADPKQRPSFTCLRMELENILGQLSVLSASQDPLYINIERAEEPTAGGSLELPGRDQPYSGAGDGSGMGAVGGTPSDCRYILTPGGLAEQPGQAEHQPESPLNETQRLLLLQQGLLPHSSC
As for `COc1cc2ncnc(N3CCN(C(=O)Nc4ccc(Oc5ccccc5)cc4)CC3)c2cc1OC`, the residual activity came out at 99.6%.
In the case of `Oc1ccc(Nc2nc(-c3ccc(Cl)cc3)cs2)cc1`, the residual activity is 102%.
Take `O=C1Nc2ccccc2/C1=C1/Nc2ccccc2/C1=N\OCCC(O)CO` (stereo not drawn): the residual activity is 71.5%.

Another assay deals with DYRK4 (human) (UniProt Q9NR20). The description is as above. Conditions: compound 0.5 µM; ATP 10 µM.
Chain of DYRK4 (human) (Q9NR20 whole entry, looked up): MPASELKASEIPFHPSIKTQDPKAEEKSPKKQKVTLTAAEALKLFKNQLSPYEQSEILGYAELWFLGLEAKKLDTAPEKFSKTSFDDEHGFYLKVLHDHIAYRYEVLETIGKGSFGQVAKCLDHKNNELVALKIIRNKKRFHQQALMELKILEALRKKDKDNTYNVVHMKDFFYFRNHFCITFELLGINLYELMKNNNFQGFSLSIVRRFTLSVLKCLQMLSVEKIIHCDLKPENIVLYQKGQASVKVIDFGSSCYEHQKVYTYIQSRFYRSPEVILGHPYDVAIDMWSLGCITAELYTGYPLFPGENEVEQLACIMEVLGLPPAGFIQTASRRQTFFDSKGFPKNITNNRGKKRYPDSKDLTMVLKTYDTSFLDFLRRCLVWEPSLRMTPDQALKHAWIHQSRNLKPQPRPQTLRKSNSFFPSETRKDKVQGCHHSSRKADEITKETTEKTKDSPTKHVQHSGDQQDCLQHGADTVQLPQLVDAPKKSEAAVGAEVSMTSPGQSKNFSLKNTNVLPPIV
With `COc1cc2ncnc(N3CCN(C(=O)Nc4ccc(Oc5ccccc5)cc4)CC3)c2cc1OC`, the residual activity is 79.8%.
In the case of `Oc1ccc(Nc2nc(-c3ccc(Cl)cc3)cs2)cc1`, the residual activity came to 95.9%.
Turning to `O=C1Nc2ccccc2/C1=C1/Nc2ccccc2/C1=N\OCCC(O)CO` (stereo not drawn), the residual activity was 100%.

The target of the next assay is NEK6 (human) (UniProt Q9HC98). The description is as above. Conditions: compound 0.5 µM; ATP 10 µM.
Chain of NEK6 (human) (Q9HC98 whole entry, looked up): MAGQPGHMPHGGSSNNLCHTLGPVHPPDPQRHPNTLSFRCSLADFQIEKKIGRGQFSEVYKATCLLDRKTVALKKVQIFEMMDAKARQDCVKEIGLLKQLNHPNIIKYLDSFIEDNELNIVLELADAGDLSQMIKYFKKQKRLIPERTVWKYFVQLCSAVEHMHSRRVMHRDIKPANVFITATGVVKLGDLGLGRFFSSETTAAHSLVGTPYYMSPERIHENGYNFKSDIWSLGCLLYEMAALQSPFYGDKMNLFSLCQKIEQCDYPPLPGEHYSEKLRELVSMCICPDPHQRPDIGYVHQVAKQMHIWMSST
Take `COc1cc2ncnc(N3CCN(C(=O)Nc4ccc(Oc5ccccc5)cc4)CC3)c2cc1OC`: the residual activity stood at 103%.
Regarding `Oc1ccc(Nc2nc(-c3ccc(Cl)cc3)cs2)cc1`, the residual activity was 95.2%.
The same measure, in the same setting: with `O=C1Nc2ccccc2/C1=C1/Nc2ccccc2/C1=N\OCCC(O)CO` (stereo not drawn) the figure was 96.3%.

In another assay the target is TGFBR2 (human) (UniProt P37173). The description is as above. To be noted: compound 0.5 µM; ATP 10 µM.
Chain of TGFBR2 (human) (P37173 whole entry, looked up): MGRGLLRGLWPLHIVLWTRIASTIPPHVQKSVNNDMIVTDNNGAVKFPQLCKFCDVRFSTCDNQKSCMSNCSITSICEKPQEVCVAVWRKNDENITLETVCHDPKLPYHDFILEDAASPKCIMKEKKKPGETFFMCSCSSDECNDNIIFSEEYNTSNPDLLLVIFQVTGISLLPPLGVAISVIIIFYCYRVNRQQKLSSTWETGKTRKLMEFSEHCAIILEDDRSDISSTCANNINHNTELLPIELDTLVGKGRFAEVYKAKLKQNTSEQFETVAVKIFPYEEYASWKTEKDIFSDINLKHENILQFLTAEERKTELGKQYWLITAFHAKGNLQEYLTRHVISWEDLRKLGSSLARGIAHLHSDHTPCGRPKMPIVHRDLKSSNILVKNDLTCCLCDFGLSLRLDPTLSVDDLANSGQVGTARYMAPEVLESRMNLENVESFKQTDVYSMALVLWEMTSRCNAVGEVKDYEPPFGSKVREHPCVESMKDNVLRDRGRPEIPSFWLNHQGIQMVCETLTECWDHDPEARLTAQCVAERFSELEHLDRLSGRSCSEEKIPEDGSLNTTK
For the molecule `COc1cc2ncnc(N3CCN(C(=O)Nc4ccc(Oc5ccccc5)cc4)CC3)c2cc1OC`, the residual activity was determined as 102%.
With `Oc1ccc(Nc2nc(-c3ccc(Cl)cc3)cs2)cc1`, the residual activity came to 112%.
For `O=C1Nc2ccccc2/C1=C1/Nc2ccccc2/C1=N\OCCC(O)CO` (stereo not drawn), the residual activity came to 119%.

A further assay has as its target EPHA1 (human) (UniProt P21709). Described as above. Conditions: compound 0.5 µM; ATP 10 µM.
On to `COc1cc2ncnc(N3CCN(C(=O)Nc4ccc(Oc5ccccc5)cc4)CC3)c2cc1OC`, for which the residual activity turned out to be 102%.
Turning to `Oc1ccc(Nc2nc(-c3ccc(Cl)cc3)cs2)cc1`, the residual activity stood at 92.6%.
In the case of `O=C1Nc2ccccc2/C1=C1/Nc2ccccc2/C1=N\OCCC(O)CO` (stereo not drawn), the residual activity came out at 82.2%.

Another assay has as its target IRAK1 (human) (UniProt P51617). The assay is described as above. Conditions: compound 0.5 µM; ATP 10 µM.
Take `COc1cc2ncnc(N3CCN(C(=O)Nc4ccc(Oc5ccccc5)cc4)CC3)c2cc1OC`: the residual activity came out at 116%.
For `Oc1ccc(Nc2nc(-c3ccc(Cl)cc3)cs2)cc1`, the residual activity was determined as 123%.
Same read-out and setting: with `O=C1Nc2ccccc2/C1=C1/Nc2ccccc2/C1=N\OCCC(O)CO` (stereo not drawn) the figure was 34.5%.

The next assay addresses CDK9 CCNT1 (human) (UniProt P50750+O60563). Described as above. Conditions: compound 0.5 µM; ATP 10 µM.
`COc1cc2ncnc(N3CCN(C(=O)Nc4ccc(Oc5ccccc5)cc4)CC3)c2cc1OC`: the residual activity was found to be 97.3%.
On to `Oc1ccc(Nc2nc(-c3ccc(Cl)cc3)cs2)cc1`, for which the residual activity turned out to be 87.8%.
`O=C1Nc2ccccc2/C1=C1/Nc2ccccc2/C1=N\OCCC(O)CO` (stereo not drawn): the residual activity stood at 52.5%.

In the next assay the target is IKBKB (human) (UniProt O14920). The assay is described as above. To be noted: compound 0.5 µM; ATP 10 µM.
For `COc1cc2ncnc(N3CCN(C(=O)Nc4ccc(Oc5ccccc5)cc4)CC3)c2cc1OC`, the residual activity amounted to 102%.
For `Oc1ccc(Nc2nc(-c3ccc(Cl)cc3)cs2)cc1`, the residual activity was 104%.
Still for that read-out and setting: with `O=C1Nc2ccccc2/C1=C1/Nc2ccccc2/C1=N\OCCC(O)CO` (stereo not drawn) the figure was 90.5%.

Another assay addresses EPHA2 (human) (UniProt P29317). The assay is described as above. To be noted: compound 0.5 µM; ATP 10 µM.
As for `COc1cc2ncnc(N3CCN(C(=O)Nc4ccc(Oc5ccccc5)cc4)CC3)c2cc1OC`, the residual activity worked out at 95.7%.
For the molecule `Oc1ccc(Nc2nc(-c3ccc(Cl)cc3)cs2)cc1`, the residual activity is 105%.
Consider `O=C1Nc2ccccc2/C1=C1/Nc2ccccc2/C1=N\OCCC(O)CO` (stereo not drawn), for which the residual activity came out at 65.3%.

A further assay has as its target SIK2 (human) (UniProt Q9H0K1). Described as above. Conditions: compound 0.5 µM; ATP 10 µM.
As to `COc1cc2ncnc(N3CCN(C(=O)Nc4ccc(Oc5ccccc5)cc4)CC3)c2cc1OC`, the residual activity is 96%.
Same read-out and setting: the figure for `Oc1ccc(Nc2nc(-c3ccc(Cl)cc3)cs2)cc1` is 90.7%; for `O=C1Nc2ccccc2/C1=C1/Nc2ccccc2/C1=N\OCCC(O)CO` (stereo not drawn) it is 75.1%.

In a further assay the target is PNCK (human) (UniProt Q6P2M8). The description is as above. Conditions: compound 0.5 µM; ATP 10 µM.
In the case of `COc1cc2ncnc(N3CCN(C(=O)Nc4ccc(Oc5ccccc5)cc4)CC3)c2cc1OC`, the residual activity amounted to 94.3%.
Turning to `Oc1ccc(Nc2nc(-c3ccc(Cl)cc3)cs2)cc1`, the residual activity turned out to be 100%.
For the molecule `O=C1Nc2ccccc2/C1=C1/Nc2ccccc2/C1=N\OCCC(O)CO` (stereo not drawn), the residual activity was 101%.

Another assay has as its target BLK (human) (UniProt P51451). Described as above. Conditions: compound 0.5 µM; ATP 10 µM.
`COc1cc2ncnc(N3CCN(C(=O)Nc4ccc(Oc5ccccc5)cc4)CC3)c2cc1OC`: the residual activity came to 113%.
Still for that read-out and setting: the figure for `Oc1ccc(Nc2nc(-c3ccc(Cl)cc3)cs2)cc1` is 100%.
Turning to `O=C1Nc2ccccc2/C1=C1/Nc2ccccc2/C1=N\OCCC(O)CO` (stereo not drawn), the residual activity turned out to be 39.1%.

A further assay concerns the target MAP4K2 (human) (UniProt Q12851). The description is as above. To be noted: compound 0.5 µM; ATP 10 µM.
As to `COc1cc2ncnc(N3CCN(C(=O)Nc4ccc(Oc5ccccc5)cc4)CC3)c2cc1OC`, the residual activity came to 94.7%.
The same measure, in the same setting: with `Oc1ccc(Nc2nc(-c3ccc(Cl)cc3)cs2)cc1` the figure was 103%; with `O=C1Nc2ccccc2/C1=C1/Nc2ccccc2/C1=N\OCCC(O)CO` (stereo not drawn), 51.7%.

The next assay addresses BMX (human) (UniProt P51813). Described as above. Conditions: compound 0.5 µM; ATP 10 µM.
Turning to `COc1cc2ncnc(N3CCN(C(=O)Nc4ccc(Oc5ccccc5)cc4)CC3)c2cc1OC`, the residual activity was determined as 90.9%.
In the case of `Oc1ccc(Nc2nc(-c3ccc(Cl)cc3)cs2)cc1`, the residual activity was found to be 103%.
For the molecule `O=C1Nc2ccccc2/C1=C1/Nc2ccccc2/C1=N\OCCC(O)CO` (stereo not drawn), the residual activity was 40.2%.

A further assay deals with CDK2 CCNE1 (human) (UniProt P24941+P24864). Described as above. To be noted: compound 0.5 µM; ATP 10 µM.
Chain of CDK2 CCNE1 (human) (P24864 whole entry, looked up, other chains not shown): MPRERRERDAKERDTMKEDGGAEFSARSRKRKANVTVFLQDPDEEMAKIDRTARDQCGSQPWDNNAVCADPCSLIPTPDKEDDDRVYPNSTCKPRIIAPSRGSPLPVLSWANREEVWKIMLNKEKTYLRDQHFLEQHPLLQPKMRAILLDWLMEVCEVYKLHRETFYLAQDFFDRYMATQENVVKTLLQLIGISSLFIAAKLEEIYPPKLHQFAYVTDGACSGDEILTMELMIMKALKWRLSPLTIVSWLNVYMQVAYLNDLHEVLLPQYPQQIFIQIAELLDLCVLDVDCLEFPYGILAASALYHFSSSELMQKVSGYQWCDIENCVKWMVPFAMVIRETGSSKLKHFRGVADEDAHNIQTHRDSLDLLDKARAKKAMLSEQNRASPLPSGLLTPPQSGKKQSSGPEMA
For the molecule `COc1cc2ncnc(N3CCN(C(=O)Nc4ccc(Oc5ccccc5)cc4)CC3)c2cc1OC`, the residual activity is 92.1%.
With `Oc1ccc(Nc2nc(-c3ccc(Cl)cc3)cs2)cc1`, the residual activity worked out at 91.9%.
For `O=C1Nc2ccccc2/C1=C1/Nc2ccccc2/C1=N\OCCC(O)CO` (stereo not drawn), the residual activity is 23.1%.

Another assay deals with NEK7 (human) (UniProt Q8TDX7). Described as above. Conditions: compound 0.5 µM; ATP 10 µM.
Regarding `COc1cc2ncnc(N3CCN(C(=O)Nc4ccc(Oc5ccccc5)cc4)CC3)c2cc1OC`, the residual activity was found to be 105%.
Same read-out and setting: the figure for `Oc1ccc(Nc2nc(-c3ccc(Cl)cc3)cs2)cc1` is 106%; for `O=C1Nc2ccccc2/C1=C1/Nc2ccccc2/C1=N\OCCC(O)CO` (stereo not drawn) it is 98.9%.

A further assay addresses BTK (human) (UniProt Q06187). The assay is described as above. To be noted: compound 0.5 µM; ATP 10 µM.
With `COc1cc2ncnc(N3CCN(C(=O)Nc4ccc(Oc5ccccc5)cc4)CC3)c2cc1OC`, the residual activity was 87.8%.
The same measure, in the same setting: with `Oc1ccc(Nc2nc(-c3ccc(Cl)cc3)cs2)cc1` the figure was 107%.
On to `O=C1Nc2ccccc2/C1=C1/Nc2ccccc2/C1=N\OCCC(O)CO` (stereo not drawn), for which the residual activity stood at 24.1%.

The target of another assay is GRK7 (human) (UniProt Q8WTQ7). The assay is described as above. To be noted: compound 0.5 µM; ATP 10 µM.
Chain of GRK7 (human) (Q8WTQ7 whole entry, looked up): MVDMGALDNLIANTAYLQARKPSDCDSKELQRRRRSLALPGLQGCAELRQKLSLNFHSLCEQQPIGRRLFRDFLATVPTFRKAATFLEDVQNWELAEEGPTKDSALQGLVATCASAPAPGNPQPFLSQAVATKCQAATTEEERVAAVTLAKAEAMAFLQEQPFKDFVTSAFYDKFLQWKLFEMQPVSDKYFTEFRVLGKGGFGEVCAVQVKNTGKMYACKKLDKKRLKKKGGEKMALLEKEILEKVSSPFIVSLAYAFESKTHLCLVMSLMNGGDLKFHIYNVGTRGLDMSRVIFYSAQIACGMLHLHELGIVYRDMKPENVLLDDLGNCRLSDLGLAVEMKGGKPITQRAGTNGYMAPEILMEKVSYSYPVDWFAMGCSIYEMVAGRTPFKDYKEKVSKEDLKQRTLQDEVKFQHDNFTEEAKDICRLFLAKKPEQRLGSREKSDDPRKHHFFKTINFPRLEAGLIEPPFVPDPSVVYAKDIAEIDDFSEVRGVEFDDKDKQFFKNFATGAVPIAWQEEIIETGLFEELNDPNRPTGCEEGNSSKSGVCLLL
In the case of `COc1cc2ncnc(N3CCN(C(=O)Nc4ccc(Oc5ccccc5)cc4)CC3)c2cc1OC`, the residual activity was 95.7%.
For `Oc1ccc(Nc2nc(-c3ccc(Cl)cc3)cs2)cc1`, the residual activity amounted to 109%.
Regarding `O=C1Nc2ccccc2/C1=C1/Nc2ccccc2/C1=N\OCCC(O)CO` (stereo not drawn), the residual activity amounted to 70.3%.

The target of a further assay is FLT3 (human) (UniProt P36888). The assay is described as above. Conditions: compound 0.5 µM; ATP 10 µM.
Consider `COc1cc2ncnc(N3CCN(C(=O)Nc4ccc(Oc5ccccc5)cc4)CC3)c2cc1OC`, for which the residual activity was 43.2%.
Consider `Oc1ccc(Nc2nc(-c3ccc(Cl)cc3)cs2)cc1`, for which the residual activity was 99%.
The same measure, in the same setting: the figure for `O=C1Nc2ccccc2/C1=C1/Nc2ccccc2/C1=N\OCCC(O)CO` (stereo not drawn) is 1.07%.

Usually residual activity stands for the signal under treatment as a percentage of the control signal.
